Experimental data taken from ChEMBL document CHEMBL6087453, “Minimalist Natural ORPphilin Macarangin B Delineates OSBP Biological Function” (J Med Chem, 2025).

How the values were obtained:
[1] = tested on: PC-3; experiment: cells; conditions: Homo sapiens, PC-3, 72 h
Description: Cytotoxicity against human PC-3 cells assessed as inhibition of cell proliferation incubated for 72 hrs by celltiter-glo assay

[2] = in vitro; conditions: human, HeLa cells
Description: Cytotoxicity against human HeLa cells assessed as inhibition of cell proliferation incubated for 72 hrs by celltiter-glo assay

[3] = in vitro; conditions: human, MRC5 cells
Description: Cytotoxicity against human MRC5 cells assessed as inhibition of cell proliferation incubated for 72 hrs by celltiter-glo assay

[4] = tested on: MCF7; experiment: cells; conditions: Homo sapiens, MCF7, 72 h
Description: Cytotoxicity against human MCF7 cells assessed as inhibition of cell proliferation incubated for 72 hrs by celltiter-glo assay

[5] = in vitro; conditions: human, RPE-1 cells (TERT-RPE1)
Description: Cytotoxicity against human RPE-1 cells assessed as inhibition of cell proliferation incubated for 72 hrs by celltiter-glo assay

[6] = molecular target: T1, Oxysterol-binding protein 1 (Homo sapiens, UniProt P22059); experiment: Binding affinity to OSBP (unknown origin) ORD domain assessed as dissociation constant by FRET assay
T1 sequence (P22059 whole entry): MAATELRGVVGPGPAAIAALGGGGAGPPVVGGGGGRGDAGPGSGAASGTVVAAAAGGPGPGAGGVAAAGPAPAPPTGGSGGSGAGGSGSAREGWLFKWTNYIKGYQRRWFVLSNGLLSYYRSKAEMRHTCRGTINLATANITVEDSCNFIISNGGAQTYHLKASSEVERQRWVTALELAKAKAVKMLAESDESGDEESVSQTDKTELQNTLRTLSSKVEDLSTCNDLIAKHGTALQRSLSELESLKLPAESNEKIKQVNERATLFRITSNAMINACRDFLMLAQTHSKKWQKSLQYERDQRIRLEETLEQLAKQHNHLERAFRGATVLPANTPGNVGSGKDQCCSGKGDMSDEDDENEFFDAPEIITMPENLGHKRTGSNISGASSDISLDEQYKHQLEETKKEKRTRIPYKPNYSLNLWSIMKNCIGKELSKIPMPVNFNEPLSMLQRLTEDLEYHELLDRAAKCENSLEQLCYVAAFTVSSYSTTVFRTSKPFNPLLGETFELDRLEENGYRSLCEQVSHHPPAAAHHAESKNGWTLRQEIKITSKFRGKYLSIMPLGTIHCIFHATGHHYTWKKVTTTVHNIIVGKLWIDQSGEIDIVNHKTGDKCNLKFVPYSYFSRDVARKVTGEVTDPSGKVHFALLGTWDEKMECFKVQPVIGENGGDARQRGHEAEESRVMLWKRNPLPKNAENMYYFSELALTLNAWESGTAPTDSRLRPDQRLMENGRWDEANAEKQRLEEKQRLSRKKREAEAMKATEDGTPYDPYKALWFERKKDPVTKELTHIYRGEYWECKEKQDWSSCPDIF

[7] = tested on: MDA-MB-231; experiment: cells; conditions: Homo sapiens, MDA-MB-231, 72 h
Description: Cytotoxicity against human MDA-MB-231 cells assessed as inhibition of cell proliferation incubated for 72 hrs by celltiter-glo assay

[8] = tested on: A549; experiment: cells; conditions: Homo sapiens, A549, 72 h
Description: Cytotoxicity against human A549 cells assessed as inhibition of cell proliferation incubated for 72 hrs by celltiter-glo assay

CC(C)=CCc1c(O)cc(/C=C/c2cc(O)c3c(c2)C[C@@H]2C(C)(C)[C@H](O)CC[C@@]2(C)O3)cc1O [SCHWEINFURTHIN G] gave an IC50 [1] of 300 nM, an IC50 at 72 h [2] of 100 nM and an IC50 at 72 h [3] of 300 nM. It also gave an IC50 [4] of 1000 nM, an IC50 at 72 h [5] of 400 nM and a Kd [6] of 22 nM. For the same compound, the IC50 [7] was 300 nM and the IC50 [8] was 500 nM.
